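Following 48 hours of exposure in 96-well plates, responses at five concentrations were used to interpolate endpoints linearly. GI50 = concentration required for 50% inhibition of growth.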 Calls of active or inactive are those of the source. Rule as the data show it: active = GI50 up to about 1.1 µM and inactive = higher.
What was measured:
Experiment in all cases: inhibition of tumour cell growth, NCI panel, 48 h
CCRF-CEM = test system: CCRF-CEM
KM-20L2 = test system: KM-20L2
SK-MEL-2 = test system: SK-MEL-2
SR = test system: SR
XF498 = test system: XF498
K562 = test system: K562
U-251 = test system: U-251
SNB-19 = test system: SNB-19
HOP-62 = test system: HOP-62
SK-MEL-28 = test system: SK-MEL-28
HCT-15 = test system: HCT-15
DMS-114 = test system: DMS-114
UACC-62 = test system: UACC-62
EKVX = test system: EKVX
OVCAR-8 = test system: OVCAR-8
Malme-3M = test system: Malme-3M
SF-295 = test system: SF-295
HCC 2998 = test system: HCC 2998
ACHN = test system: ACHN
RXF 631 = test system: RXF 631
SF-539 = test system: SF-539
M14 = test system: M14
M19-MEL = test system: M19-MEL
TK-10 = test system: TK-10
SF-268 = test system: SF-268
DLD-1 = test system: DLD-1
IGROV-1 = test system: IGROV-1
SN12C = test system: SN12C
HT-29 = test system: HT-29
DMS-273 = test system: DMS-273
HCT-116 = test system: HCT-116
UACC-257 = test system: UACC-257
NCI-H23 = test system: NCI-H23
OVCAR-3 = test system: OVCAR-3
OVCAR-4 = test system: OVCAR-4
UO-31 = test system: UO-31
LXFL 529 = test system: LXFL 529
HL-60 = test system: HL-60
786-0 = test system: 786-0
NCI-H460 = test system: NCI-H460
SW-620 = test system: SW-620
RPMI-8226 = test system: RPMI-8226
COLO 205 = test system: COLO 205
SK-MEL-5 = test system: SK-MEL-5
LOX IMVI = test system: LOX IMVI
MOLT-4 = test system: MOLT-4
RXF 393 = test system: RXF 393
A549 = test system: A549
A498 = test system: A498
NCI-H226 = test system: NCI-H226
SNB-78 = test system: SNB-78
KM12 = test system: KM12
OVCAR-5 = test system: OVCAR-5
HOP-18 = test system: HOP-18
CAKI-1 = test system: CAKI-1
SNB-75 = test system: SNB-75
SK-OV-3 = test system: SK-OV-3
HOP-92 = test system: HOP-92
NCI-H522 = test system: NCI-H522

`COC(=O)CC(C(C(=O)OCc1ccccc1)C(C)O)N1C(=O)OC(c2ccccc2)C1c1ccccc1` (stereo not drawn) was tested, and the GI50 (CCRF-CEM) was > 100 µM (inactive), the GI50 (KM-20L2) was > 100 µM (inactive) and the GI50 (SK-MEL-2) was > 100 µM (inactive). The GI50 (SR) was 81.5 µM (inactive), the GI50 (XF498) was 24.9 µM (inactive) and the GI50 (K562) was 81.1 µM (inactive). The GI50 (U-251) was > 100 µM (inactive), the GI50 (SNB-19) was > 100 µM (inactive) and the GI50 (HOP-62) was > 100 µM (inactive). The GI50 (SK-MEL-28) was > 100 µM (inactive), the GI50 (HCT-15) was > 100 µM and the GI50 (DMS-114) was 81.5 µM (inactive). The GI50 (UACC-62) was 52 µM (inactive), the GI50 (EKVX) was > 100 µM (inactive) and the GI50 (OVCAR-8) was > 100 µM (inactive). For the same molecule, the GI50 (Malme-3M) was > 100 µM (inactive), the GI50 (SF-295) was 64.6 µM (inactive) and the GI50 (HCC 2998) was > 100 µM (inactive). For the same molecule, the GI50 (ACHN) was > 100 µM (inactive), the GI50 (RXF 631) was > 100 µM (inactive) and the GI50 (SF-539) was > 100 µM (inactive). The GI50 (M14) was > 100 µM (inactive), the GI50 (M19-MEL) was > 100 µM (inactive) and the GI50 (TK-10) was > 100 µM (inactive). The GI50 (SF-268) was > 100 µM (inactive), the GI50 (DLD-1) was > 100 µM (inactive) and the GI50 (IGROV-1) was > 100 µM (inactive). The GI50 (SN12C) was > 100 µM (inactive), the GI50 (HT-29) was > 100 µM (inactive) and the GI50 (DMS-273) was > 100 µM (inactive). For the same molecule, the GI50 (HCT-116) was > 100 µM (inactive), the GI50 (UACC-257) was > 100 µM (inactive) and the GI50 (NCI-H23) was > 100 µM (inactive). For the same molecule, the GI50 (OVCAR-3) was > 100 µM (inactive), the GI50 (OVCAR-4) was > 100 µM (inactive) and the GI50 (UO-31) was 48.9 µM (inactive). For the same molecule, the GI50 (LXFL 529) was > 100 µM (inactive), the GI50 (HL-60) was > 100 µM (inactive) and the GI50 (786-0) was > 100 µM (inactive). For the same molecule, the GI50 (NCI-H460) was > 100 µM (inactive), the GI50 (SW-620) was > 100 µM (inactive) and the GI50 (RPMI-8226) was 62.7 µM (inactive). For the same molecule, the GI50 (COLO 205) was > 100 µM (inactive), the GI50 (SK-MEL-5) was 74 µM (inactive) and the GI50 (LOX IMVI) was > 100 µM (inactive). For the same molecule, the GI50 (MOLT-4) was 44.2 µM (inactive), the GI50 (RXF 393) was > 100 µM (inactive) and the GI50 (A549) was 95.5 µM (inactive). The GI50 (A498) was > 100 µM (inactive) and the GI50 (NCI-H226) was > 100 µM (inactive).

`Cc1ccccc1C(=O)c1c(O)c2c(c(O)c1Br)CCCC2` was tested, and the GI50 (KM-20L2) was 19.4 µM (inactive), the GI50 (SK-MEL-2) was 16.7 µM (inactive) and the GI50 (SR) was 16.2 µM (inactive). For the same molecule, the GI50 (XF498) was 21.7 µM (inactive), the GI50 (K562) was 21.1 µM (inactive) and the GI50 (U-251) was 16.7 µM (inactive). The GI50 (SNB-19) was 23 µM (inactive), the GI50 (HOP-62) was 37.2 µM (inactive) and the GI50 (HCT-15) was 16.7 µM. The GI50 (DMS-114) was 13.6 µM (inactive), the GI50 (UACC-62) was 15.1 µM (inactive) and the GI50 (EKVX) was 17.6 µM (inactive). For the same molecule, the GI50 (OVCAR-8) was 17.3 µM (inactive), the GI50 (SNB-78) was 21.5 µM (inactive) and the GI50 (Malme-3M) was 11.5 µM (inactive). The GI50 (SF-295) was 21.2 µM (inactive), the GI50 (HCC 2998) was 19.5 µM (inactive) and the GI50 (ACHN) was 17.9 µM (inactive). The GI50 (SF-539) was 18.5 µM (inactive), the GI50 (M14) was 14 µM (inactive) and the GI50 (M19-MEL) was 15.6 µM (inactive). The GI50 (TK-10) was 17.8 µM (inactive), the GI50 (SF-268) was 15 µM (inactive) and the GI50 (DLD-1) was 23 µM (inactive). The GI50 (IGROV-1) was 20.7 µM (inactive), the GI50 (SN12C) was 18.1 µM (inactive) and the GI50 (HT-29) was 27.9 µM (inactive). The GI50 (DMS-273) was 17.6 µM (inactive), the GI50 (KM12) was 16.6 µM (inactive) and the GI50 (HCT-116) was 16.6 µM (inactive). For the same molecule, the GI50 (UACC-257) was 14.7 µM (inactive), the GI50 (NCI-H23) was 26.2 µM (inactive) and the GI50 (OVCAR-3) was 13.8 µM (inactive). The GI50 (OVCAR-5) was 20 µM (inactive), the GI50 (OVCAR-4) was 14.9 µM (inactive) and the GI50 (UO-31) was 17.5 µM (inactive). For the same molecule, the GI50 (LXFL 529) was 13 µM (inactive), the GI50 (HOP-18) was 12.5 µM (inactive) and the GI50 (CAKI-1) was 20.1 µM (inactive). For the same molecule, the GI50 (HL-60) was 5.07 µM (inactive), the GI50 (786-0) was 14.5 µM (inactive) and the GI50 (NCI-H460) was 22 µM (inactive). The GI50 (SNB-75) was 18.7 µM (inactive), the GI50 (SW-620) was 18.7 µM (inactive) and the GI50 (RPMI-8226) was 20.1 µM (inactive). The GI50 (COLO 205) was 18.9 µM (inactive), the GI50 (SK-MEL-5) was 18.5 µM (inactive) and the GI50 (MOLT-4) was 6.14 µM (inactive). The GI50 (SK-OV-3) was 21.8 µM (inactive), the GI50 (HOP-92) was 23.2 µM (inactive) and the GI50 (NCI-H522) was 10.5 µM (inactive). For the same molecule, the GI50 (RXF 393) was 18.7 µM (inactive), the GI50 (A549) was 23.2 µM (inactive) and the GI50 (A498) was 22.1 µM (inactive). The GI50 (NCI-H226) was 25.4 µM (inactive).

`Cc1cc(Cl)cc2c1NC(=O)C2(O)C(C)C(=O)c1ccc(Cl)cc1` (stereo not drawn) was tested, and the GI50 (CCRF-CEM) was 30.2 µM (inactive), the GI50 (KM-20L2) was > 100 µM (inactive) and the GI50 (SK-MEL-2) was > 100 µM (inactive). For the same molecule, the GI50 (SR) was > 66.2 µM (inactive), the GI50 (XF498) was 42.6 µM (inactive) and the GI50 (K562) was > 58.9 µM (inactive). For the same molecule, the GI50 (U-251) was 72.4 µM (inactive), the GI50 (SNB-19) was > 100 µM (inactive) and the GI50 (HOP-62) was > 100 µM (inactive). The GI50 (SK-MEL-28) was > 62.1 µM (inactive), the GI50 (HCT-15) was > 89.1 µM and the GI50 (DMS-114) was 37.3 µM (inactive). For the same molecule, the GI50 (UACC-62) was 20.2 µM (inactive), the GI50 (EKVX) was > 81.5 µM (inactive) and the GI50 (OVCAR-8) was > 85.9 µM (inactive). For the same molecule, the GI50 (SNB-78) was > 66.2 µM (inactive), the GI50 (Malme-3M) was > 61.7 µM (inactive) and the GI50 (SF-295) was > 92.5 µM (inactive). For the same molecule, the GI50 (HCC 2998) was > 100 µM (inactive), the GI50 (ACHN) was > 100 µM (inactive) and the GI50 (SF-539) was > 62.1 µM (inactive). For the same molecule, the GI50 (M14) was > 100 µM (inactive), the GI50 (M19-MEL) was 12.8 µM (inactive) and the GI50 (TK-10) was > 100 µM (inactive). For the same molecule, the GI50 (SF-268) was > 71.9 µM (inactive), the GI50 (DLD-1) was > 61.2 µM (inactive) and the GI50 (IGROV-1) was > 81.3 µM (inactive). The GI50 (SN12C) was > 74.1 µM (inactive), the GI50 (HT-29) was > 83.2 µM (inactive) and the GI50 (DMS-273) was > 83.2 µM (inactive). For the same molecule, the GI50 (KM12) was 99.1 µM (inactive), the GI50 (HCT-116) was > 74.1 µM (inactive) and the GI50 (UACC-257) was 42.6 µM (inactive). The GI50 (NCI-H23) was > 72.1 µM (inactive), the GI50 (OVCAR-3) was 49.9 µM (inactive) and the GI50 (OVCAR-5) was > 100 µM (inactive). The GI50 (OVCAR-4) was 21.8 µM (inactive), the GI50 (UO-31) was > 100 µM (inactive) and the GI50 (LXFL 529) was > 66.5 µM (inactive). For the same molecule, the GI50 (HOP-18) was > 92.9 µM (inactive), the GI50 (CAKI-1) was > 92.5 µM (inactive) and the GI50 (HL-60) was 3.15 µM (inactive). For the same molecule, the GI50 (786-0) was 85.7 µM (inactive), the GI50 (NCI-H460) was > 100 µM (inactive) and the GI50 (SNB-75) was > 59.3 µM (inactive). For the same molecule, the GI50 (SW-620) was > 74.8 µM (inactive), the GI50 (RPMI-8226) was 31.8 µM (inactive) and the GI50 (COLO 205) was 97.1 µM (inactive). The GI50 (SK-MEL-5) was 27.7 µM (inactive), the GI50 (LOX IMVI) was > 100 µM (inactive) and the GI50 (MOLT-4) was 28.4 µM (inactive). For the same molecule, the GI50 (SK-OV-3) was > 100 µM (inactive), the GI50 (HOP-92) was 33.9 µM (inactive) and the GI50 (NCI-H522) was 39.9 µM (inactive). The GI50 (RXF 393) was 47.8 µM (inactive), the GI50 (A549) was > 100 µM (inactive) and the GI50 (A498) was > 57.7 µM (inactive). The GI50 (NCI-H226) was > 60.1 µM (inactive).

Reference: ChEMBL document CHEMBL1201862, “PubChem BioAssay data set” (2004)
